PubChem BioAssay (NCI)
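GI50 = concentration required for 50% inhibition of growth. TGI: total growth inhibition.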

Legend:
Test in all cases: growth of human tumour cells (NCI), 384-well format
SF-539 CNS = test system: SF-539 CNS
KM12 colon = test system: KM12 colon
ACHN renal = test system: ACHN renal
SR leukemia = test system: SR leukemia
OVCAR-5 ovarian = test system: OVCAR-5 ovarian
COLO 205 colon = test system: COLO 205 colon
BT-549 breast = test system: BT-549 breast
U251 glioblastoma = test system: U251 glioblastoma
MCF7 breast = test system: MCF7 breast
MDA-MB-231 breast = test system: MDA-MB-231 breast
HOP-62 NSCLC = test system: HOP-62 NSCLC
SNB-75 CNS = test system: SNB-75 CNS
HL-60(TB) leukemia = test system: HL-60(TB) leukemia
MDA-MB-468 breast = test system: MDA-MB-468 breast
SF-268 CNS = test system: SF-268 CNS
SF-295 CNS = test system: SF-295 CNS
T-47D breast = test system: T-47D breast
CCRF-CEM leukemia = test system: CCRF-CEM leukemia
OVCAR-8 ovarian = test system: OVCAR-8 ovarian
NCI-H226 lung = test system: NCI-H226 lung
HCT-15 colon = test system: HCT-15 colon
MDA-MB-435 melanoma = test system: MDA-MB-435 melanoma
SK-MEL-28 melanoma = test system: SK-MEL-28 melanoma
UACC-62 melanoma = test system: UACC-62 melanoma
OVCAR-4 ovarian = test system: OVCAR-4 ovarian
SN12C renal = test system: SN12C renal
HCC-2998 colon = test system: HCC-2998 colon
NCI-H23 lung = test system: NCI-H23 lung
HS 578T breast = test system: HS 578T breast

`C=CC(=O)Nc1cccc(Oc2nc(Nc3ccc(N4CCN(C)CC4)cc3OC)ncc2Cl)c1` showed a GI50 (SF-539 CNS) of 1540 nM, a TGI (SF-539 CNS) of 2880 nM and a GI50 (KM12 colon) of 1700 nM. For the same molecule, the TGI (KM12 colon) was 3090 nM, the GI50 (ACHN renal) was 440 nM and the TGI (ACHN renal) was 1710 nM. For the same molecule, the GI50 (SR leukemia) was 1560 nM, the TGI (SR leukemia) was 2890 nM and the GI50 (OVCAR-5 ovarian) was 1550 nM. It also gave a TGI (OVCAR-5 ovarian) of 3390 nM, a GI50 (COLO 205 colon) of 1720 nM and a TGI (COLO 205 colon) of 3100 nM. It also gave a GI50 (BT-549 breast) of 1300 nM, a TGI (BT-549 breast) of 2590 nM and a GI50 (U251 glioblastoma) of 1690 nM. The TGI (U251 glioblastoma) was 3090 nM, the GI50 (MCF7 breast) was 1140 nM and the TGI (MCF7 breast) was 2360 nM. It also gave a GI50 (MDA-MB-231 breast) of 1560 nM, a TGI (MDA-MB-231 breast) of 2950 nM and a GI50 (HOP-62 NSCLC) of 1800 nM. It also gave a TGI (HOP-62 NSCLC) of 3510 nM, a GI50 (SNB-75 CNS) of 1440 nM and a TGI (SNB-75 CNS) of 2890 nM. The GI50 (HL-60(TB) leukemia) was 1070 nM, the TGI (HL-60(TB) leukemia) was 2260 nM and the GI50 (MDA-MB-468 breast) was 16.7 nM. For the same molecule, the TGI (MDA-MB-468 breast) was 90.9 nM, the GI50 (SF-268 CNS) was 1460 nM and the TGI (SF-268 CNS) was 2790 nM. The GI50 (SF-295 CNS) was 1870 nM, the TGI (SF-295 CNS) was 3450 nM and the GI50 (T-47D breast) was 1110 nM. For the same molecule, the TGI (T-47D breast) was 2320 nM, the GI50 (CCRF-CEM leukemia) was 1420 nM and the TGI (CCRF-CEM leukemia) was 2720 nM. For the same molecule, the GI50 (OVCAR-8 ovarian) was 1440 nM, the TGI (OVCAR-8 ovarian) was 2760 nM and the GI50 (NCI-H226 lung) was 1130 nM. The TGI (NCI-H226 lung) was 2520 nM, the GI50 (HCT-15 colon) was 1340 nM and the TGI (HCT-15 colon) was 2640 nM. The GI50 (MDA-MB-435 melanoma) was 1710 nM, the TGI (MDA-MB-435 melanoma) was 3100 nM and the GI50 (SK-MEL-28 melanoma) was 1670 nM. For the same molecule, the TGI (SK-MEL-28 melanoma) was 3030 nM, the GI50 (UACC-62 melanoma) was 1560 nM and the TGI (UACC-62 melanoma) was 2900 nM. It also gave a GI50 (OVCAR-4 ovarian) of 1540 nM, a TGI (OVCAR-4 ovarian) of 4150 nM and a GI50 (SN12C renal) of 1090 nM. The TGI (SN12C renal) was 2610 nM, the GI50 (HCC-2998 colon) was 1570 nM and the TGI (HCC-2998 colon) was 2930 nM. The GI50 (NCI-H23 lung) was 1830 nM, the TGI (NCI-H23 lung) was 3860 nM and the GI50 (HS 578T breast) was 1370 nM. For the same molecule, the TGI (HS 578T breast) was 2670 nM.
